Tests used:
human CCR2b receptor = biological target: T1, human CCR2b receptor (Homo sapiens, UniProt P41597); assay: [125I]-MCP-1 binding displacement on CHO-K1-CCR2B cells (inhibiting activity on cells expressing the human CCR2b receptor); settings: iodinated MCP-1 0.1 nM, 1 h 30 minutes at ambient temperature, read-out: Cl50 (concentration which inhibited 50% of the activity of the CCR2b receptor)
T1 construct: host or cells: CHO-K1
T1 sequence (P41597 1-360 isoform P41597-2): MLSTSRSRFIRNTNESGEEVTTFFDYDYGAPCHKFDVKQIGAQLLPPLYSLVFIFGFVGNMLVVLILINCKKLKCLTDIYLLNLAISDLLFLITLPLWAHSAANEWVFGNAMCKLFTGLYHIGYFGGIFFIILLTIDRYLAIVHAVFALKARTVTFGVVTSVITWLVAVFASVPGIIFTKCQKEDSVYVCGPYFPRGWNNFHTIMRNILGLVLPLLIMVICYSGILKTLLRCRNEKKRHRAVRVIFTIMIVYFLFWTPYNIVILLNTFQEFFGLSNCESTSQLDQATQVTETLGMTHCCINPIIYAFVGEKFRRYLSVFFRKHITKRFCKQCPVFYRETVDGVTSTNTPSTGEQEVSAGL
Procedure: The inhibiting activity of the compounds according to the invention was measured on cells expressing the human CCR2b receptor. The concentration of natural hMCP-1 agonist which inhibited 50% (Cl50) of the activity of the CCR2b receptor was 0.57 nM.
The following are brought into contact for 1 h 30 minutes at ambient temperature, in Millipore GF/B filter plates (ref. MAFBNOB 10 or 50): 50 μl of compound at 3×10^−5 M in the reaction buffer or cold MCP-1 range ((R & D Systems). Recombinant human MCP-1) (final concentration of compound: 10^−5 M), and 50 μl of iodinated MCP-1 ([^125 l]-MCP-1 human recombinant Bolton+Hunter labelled (Amersham)) at 0.3 nM in distilled water (final concentration of iodinated MCP-1: 0.1 nM), and 50 μl of CHO-K1-CCR2B cells (obtained from Euroscreen Brussels, Belgium) at 6×10^5 cells/ml (final concentration in the reaction buffer: […]). The filters were saturated beforehand with 100 μl of PEI at a final concentration of 0.0125% in PBS, for 72 h at 4° C., and the PEI was removed by filtration. The content of the wells was filtered and washed twice with the reaction buffer, and the filters were left to dry overnight. The following day, 20 μl/well of “Wallac Optiphase Super Mix” scintillant were dispensed. The filters were impregnated for 1 to 2 h and then counted with Trilux Iodine 125 for 1 min.
Reaction buffer=PBS buffer, […], 1 mM CaCl2, 5 mM MgCl2, 0.5% fatty acid-free BSA, adjusted to pH 7.4.

| Molecule | IC50 (human CCR2b receptor) [nM] | melting point [°C] |
| --- | --- | --- |
| COc1ccc(C2CCCCC2)cc1-c1csc(NC(=O)N2CCN(C3CCOCC3)CC2)n1 [Compound No 11, 4-(tetrahydropyran-4-yl)piperazine-1-carboxylic acid [4-(5-cyclohexyl-2-methoxyphenyl)thiazol-2-yl]amide] | 20 | 226 |
| COc1ccc(C2CCCCC2)cc1-c1csc(NC(=O)N2CCN(C[C@@H]3CCCN(CCCCC(=O)O)C3)CC2)n1 [compound 9, 5-((R)-3-{4-[4-(5-cyclohexyl-2-methoxyphenyl)thiazol-2-ylcarbamoyl]piperazin-1-ylmethyl}piperidin-1-yl)pentanoic acid] | 4 | 153 |
| COc1ccc(C2CCCCC2)cc1-c1csc(NC(=O)N2CCN(C3CCCCC3)CC2)n1 [compound 10, 4-cyclohexylpiperazine-1-carboxylic acid [4-(5-cyclohexyl-2-methoxyphenyl)thiazol-2-yl]amide] | 53 | 110 |
| COc1ccc(C2CCCCC2)cc1-c1csc(NC(=O)N2CCN(C(=O)[C@@H]3CCCN(C4CC4)C3)CC2)n1 [compound 22, 4-((R)-1-cyclopropylpiperidine-3-carbonyl)piperazine-1-carboxylic acid [4-(5-cyclohexyl-2-methoxyphenyl)thiazol-2-yl]amide] | 4 | – |
| CCCCc1ccc(OCC)c(-c2csc(NC(=O)N3CCN(C[C@@H]4CCCN(C5CC5)C4)CC3)n2)c1 [compound 23, 4-((S)-1-cyclopropylpiperidin-3-ylmethyl)piperazine-1-carboxylic acid [4-(5-butyl-2-ethoxyphenyl)thiazol-2-yl]amide] | 8 | 86 |
| COc1ccc(C2CCCCC2)cc1-c1csc(NC(=O)N2CCN(C[C@@H]3CCCN(S(=O)(=O)C4CC4)C3)CC2)n1 [compound 29, 4-((S)-1-cyclopropanesulphonylpiperidin-3-ylmethyl)piperazine-1-carboxylic acid [4-(5-cyclohexyl-2-methoxyphenyl)thiazol-2-yl]amide] | 50 | 114 |
| COc1ccc(C2CCCCC2)cc1-c1csc(NC(=O)N2CCN(C3CCS(=O)(=O)CC3)CC2)n1 [compound 33, 4-(1,1-dioxohexahydro-1λ^6-thiopyran-4-yl)piperazine-1-carboxylic acid [4-(5-cyclohexyl-2-methoxyphenyl)thiazol-2-yl]amide] | 20 | 204 |

The next lines start with the values.

| IC50 (human CCR2b receptor) [nM] | melting point [°C] | Molecule |
| --- | --- | --- |
| 82 | 98 | COc1ccc(C2CCCCC2)cc1-c1csc(NC(=O)N2CCN(CC3CCOC(C)(C)C3)CC2)n1 (stereo not shown) [compound 40, 4-(2,2-dimethyltetrahydropyran-4-ylmethyl)piperazine-1-carboxylic acid [4-(5-cyclohexyl-2-methoxyphenyl)thiazol-2-yl]amide] |
| 39 | 118 | COc1ccc(C2CCCCC2)cc1-c1csc(NC(=O)N2CCN(C3CCSCC3)CC2)n1 [compound 41, 4-(tetrahydrothiopyran-4-yl)piperazine-1-carboxylic acid [4-(5-cyclohexyl-2-methoxyphenyl)thiazol-2-yl]amide] |
| 73 | – | COc1ccc(C2CCCCC2)cc1-c1csc(NC(=O)N2CCN(CC3CCCCN3S(=O)(=O)c3cnn(C)c3C)CC2)n1 (stereo not shown) [compound 45, 4-[1-(1,5-dimethyl-1H-pyrazole-4-sulphonyl)piperidin-2-ylmethyl]piperazine-1-carboxylic acid [4-(5-cyclohexyl-2-methoxyphenyl)thiazol-2-yl]amide] |
| 0.57 | – | hMCP-1: human monocyte chemotactic protein, CC chemokine group, natural agonist of the CCR2b receptor [reference compound] |
